{"source": "the supplement of paper PMC10307832", "test_in_all_cases": "relative viability (nuclei count vs DMSO), 5 days (fraction); higher = more cells survive", "key": {"[1]": {"test_system": "A-427", "in_short": "(§1)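 Nuclei were stained with Hoechst during a one-step fixation (final 0.05% Triton X-100, 1% formaldehyde, 1 ug/ml Hoechst) carried out 5 days after dosing, then counted on 4× images. The cells, lung cancer lines in 1536-well plates, had been dosed by pin tool the day after seeding with one drug alone or a fixed anchor-drug dose plus five library-drug doses (not always all listed) in √10 steps. Relative viability is the nuclei count in treated wells divided by that in vehicle wells, and each value is the median of duplicate plates.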"}, "[2]": {"test_system": "NCI-H460", "in_short": "as §1"}, "[3]": {"test_system": "SK-LU-1", "in_short": "as §1"}, "[4]": {"test_system": "NCI-H1792", "in_short": "as §1"}, "[5]": {"test_system": "NCI-H1944", "in_short": "as §1"}, "[6]": {"test_system": "NCI-H1915", "in_short": "as §1"}, "[7]": {"test_system": "UMC-11", "in_short": "as §1"}, "[8]": {"test_system": "NCI-H2170", "in_short": "as §1"}, "[9]": {"test_system": "NCI-H358", "in_short": "as §1"}, "[10]": {"test_system": "LC-2-ad", "in_short": "as §1"}, "[11]": {"test_system": "SW 900", "in_short": "as §1"}, "[12]": {"test_system": "NCI-H2085", "in_short": "as §1"}, "[13]": {"test_system": "LXF-289", "in_short": "as §1"}, "[14]": {"test_system": "HOP-62", "in_short": "as §1"}, "[15]": {"test_system": "NCI-H1666", "in_short": "as §1"}, "[16]": {"test_system": "EPLC-272H", "in_short": "as §1"}, "[17]": {"test_system": "HCC-78", "in_short": "as §1"}, "[18]": {"test_system": "HCC-366", "in_short": "as §1"}, "[19]": {"test_system": "NCI-H2009", "in_short": "as §1"}, "[20]": {"test_system": "NCI-H1793", "in_short": "as §1"}, "[21]": {"test_system": "COR-L 105", "in_short": "as §1"}, "[22]": {"test_system": "LU99A", "in_short": "as §1"}}}
{"smiles": "O=c1cc(-c2cccc3c2Sc2ccccc2S3)oc(N2CCOCC2)c1", "note": "+ CC(=O)Nc1cccc(-n2c(=O)n(C3CC3)c(=O)c3c(Nc4ccc(I)cc4F)n(C)c(=O)c(C)c32)c1 [Trametinib] (partner 0.02 µM)", "values": [{"measurement": "relative viability", "setting": "[1]; first compound 0.08 µM", "result": 0.718}, {"measurement": "relative viability", "setting": "[1]; first compound 0.253 µM", "result": 0.867}, {"measurement": "relative viability", "setting": "[1]; first compound 0.8 µM", "result": 0.735}, {"measurement": "relative viability", "setting": "[1]; first compound 2.53 µM", "result": 0.709}, {"measurement": "relative viability", "setting": "[1]; first compound 8 µM", "result": 0.747}, {"measurement": "relative viability", "setting": "[2]; first compound 0.08 µM", "result": 0.147}, {"measurement": "relative viability", "setting": "[2]; first compound 0.253 µM", "result": 0.163}, {"measurement": "relative viability", "setting": "[2]; first compound 0.8 µM", "result": 0.113}, {"measurement": "relative viability", "setting": "[2]; first compound 2.53 µM", "result": 0.091}, {"measurement": "relative viability", "setting": "[2]; first compound 8 µM", "result": 0.1}, {"measurement": "relative viability", "setting": "[3]; first compound 0.08 µM", "result": 0.422}, {"measurement": "relative viability", "setting": "[3]; first compound 0.253 µM", "result": 0.512}, {"measurement": "relative viability", "setting": "[3]; first compound 0.8 µM", "result": 0.582}, {"measurement": "relative viability", "setting": "[3]; first compound 2.53 µM", "result": 0.414}, {"measurement": "relative viability", "setting": "[3]; first compound 8 µM", "result": 0.415}, {"measurement": "relative viability", "setting": "[4]; first compound 0.08 µM", "result": 0.446}, {"measurement": "relative viability", "setting": "[4]; first compound 0.253 µM", "result": 0.685}, {"measurement": "relative viability", "setting": "[4]; first compound 0.8 µM", "result": 0.441}, {"measurement": "relative viability", "setting": "[4]; first compound 2.53 µM", "result": 0.421}, {"measurement": "relative viability", "setting": "[4]; first compound 8 µM", "result": 0.38}, {"measurement": "relative viability", "setting": "[5]; first compound 0.08 µM", "result": 0.365}, {"measurement": "relative viability", "setting": "[5]; first compound 0.253 µM", "result": 0.414}, {"measurement": "relative viability", "setting": "[5]; first compound 0.8 µM", "result": 0.396}, {"measurement": "relative viability", "setting": "[5]; first compound 2.53 µM", "result": 0.428}, {"measurement": "relative viability", "setting": "[5]; first compound 8 µM", "result": 0.428}, {"measurement": "relative viability", "setting": "[6]; first compound 0.08 µM", "result": 0.293}, {"measurement": "relative viability", "setting": "[6]; first compound 0.253 µM", "result": 0.312}, {"measurement": "relative viability", "setting": "[6]; first compound 0.8 µM", "result": 0.32}, {"measurement": "relative viability", "setting": "[6]; first compound 2.53 µM", "result": 0.285}, {"measurement": "relative viability", "setting": "[6]; first compound 8 µM", "result": 0.264}, {"measurement": "relative viability", "setting": "[7]; first compound 0.08 µM", "result": 0.719}, {"measurement": "relative viability", "setting": "[7]; first compound 0.253 µM", "result": 0.827}, {"measurement": "relative viability", "setting": "[7]; first compound 0.8 µM", "result": 0.78}, {"measurement": "relative viability", "setting": "[7]; first compound 2.53 µM", "result": 0.638}, {"measurement": "relative viability", "setting": "[7]; first compound 8 µM", "result": 1.03}, {"measurement": "relative viability", "setting": "[8]; first compound 0.08 µM", "result": 0.996}, {"measurement": "relative viability", "setting": "[8]; first compound 0.253 µM", "result": 1.08}, {"measurement": "relative viability", "setting": "[8]; first compound 0.8 µM", "result": 1.06}, {"measurement": "relative viability", "setting": "[8]; first compound 2.53 µM", "result": 0.816}, {"measurement": "relative viability", "setting": "[8]; first compound 8 µM", "result": 1.01}, {"measurement": "relative viability", "setting": "[9]; first compound 0.08 µM", "result": 0.123}, {"measurement": "relative viability", "setting": "[9]; first compound 0.253 µM", "result": 0.134}, {"measurement": "relative viability", "setting": "[9]; first compound 0.8 µM", "result": 0.123}, {"measurement": "relative viability", "setting": "[9]; first compound 2.53 µM", "result": 0.111}, {"measurement": "relative viability", "setting": "[9]; first compound 8 µM", "result": 0.152}, {"measurement": "relative viability", "setting": "[10]; first compound 0.08 µM", "result": 0.882}, {"measurement": "relative viability", "setting": "[10]; first compound 0.253 µM", "result": 0.967}, {"measurement": "relative viability", "setting": "[10]; first compound 0.8 µM", "result": 0.93}, {"measurement": "relative viability", "setting": "[10]; first compound 2.53 µM", "result": 0.858}, {"measurement": "relative viability", "setting": "[10]; first compound 8 µM", "result": 0.858}, {"measurement": "relative viability", "setting": "[11]; first compound 0.253 µM", "result": 0.93}, {"measurement": "relative viability", "setting": "[11]; first compound 0.8 µM", "result": 0.777}, {"measurement": "relative viability", "setting": "[11]; first compound 2.53 µM", "result": 0.814}, {"measurement": "relative viability", "setting": "[11]; first compound 8 µM", "result": 0.816}, {"measurement": "relative viability", "setting": "[12]; first compound 0.08 µM", "result": 0.526}, {"measurement": "relative viability", "setting": "[12]; first compound 0.253 µM", "result": 0.573}, {"measurement": "relative viability", "setting": "[12]; first compound 0.8 µM", "result": 0.441}, {"measurement": "relative viability", "setting": "[12]; first compound 2.53 µM", "result": 0.401}, {"measurement": "relative viability", "setting": "[12]; first compound 8 µM", "result": 0.446}, {"measurement": "relative viability", "setting": "[13]; first compound 0.08 µM", "result": 0.657}, {"measurement": "relative viability", "setting": "[13]; first compound 0.253 µM", "result": 0.716}, {"measurement": "relative viability", "setting": "[13]; first compound 0.8 µM", "result": 0.73}, {"measurement": "relative viability", "setting": "[13]; first compound 2.53 µM", "result": 0.651}, {"measurement": "relative viability", "setting": "[13]; first compound 8 µM", "result": 0.692}, {"measurement": "relative viability", "setting": "[14]; first compound 0.08 µM", "result": 0.401}, {"measurement": "relative viability", "setting": "[14]; first compound 0.253 µM", "result": 0.394}, {"measurement": "relative viability", "setting": "[14]; first compound 0.8 µM", "result": 0.348}, {"measurement": "relative viability", "setting": "[14]; first compound 2.53 µM", "result": 0.319}, {"measurement": "relative viability", "setting": "[14]; first compound 8 µM", "result": 0.321}, {"measurement": "relative viability", "setting": "[15]; first compound 0.08 µM", "result": 0.828}, {"measurement": "relative viability", "setting": "[15]; first compound 0.253 µM", "result": 0.916}, {"measurement": "relative viability", "setting": "[15]; first compound 0.8 µM", "result": 0.864}, {"measurement": "relative viability", "setting": "[15]; first compound 2.53 µM", "result": 0.89}, {"measurement": "relative viability", "setting": "[15]; first compound 8 µM", "result": 0.793}, {"measurement": "relative viability", "setting": "[16]; first compound 0.08 µM", "result": 0.254}, {"measurement": "relative viability", "setting": "[16]; first compound 0.253 µM", "result": 0.293}, {"measurement": "relative viability", "setting": "[16]; first compound 0.8 µM", "result": 0.238}, {"measurement": "relative viability", "setting": "[16]; first compound 2.53 µM", "result": 0.28}, {"measurement": "relative viability", "setting": "[16]; first compound 8 µM", "result": 0.28}, {"measurement": "relative viability", "setting": "[17]; first compound 0.08 µM", "result": 0.712}, {"measurement": "relative viability", "setting": "[17]; first compound 0.253 µM", "result": 1.03}, {"measurement": "relative viability", "setting": "[17]; first compound 0.8 µM", "result": 0.677}, {"measurement": "relative viability", "setting": "[17]; first compound 2.53 µM", "result": 0.786}, {"measurement": "relative viability", "setting": "[17]; first compound 8 µM", "result": 0.544}, {"measurement": "relative viability", "setting": "[18]; first compound 0.08 µM", "result": 0.31}, {"measurement": "relative viability", "setting": "[18]; first compound 0.253 µM", "result": 0.474}, {"measurement": "relative viability", "setting": "[18]; first compound 0.8 µM", "result": 0.339}, {"measurement": "relative viability", "setting": "[18]; first compound 2.53 µM", "result": 0.33}, {"measurement": "relative viability", "setting": "[18]; first compound 8 µM", "result": 0.284}, {"measurement": "relative viability", "setting": "[19]; first compound 0.08 µM", "result": 0.257}, {"measurement": "relative viability", "setting": "[19]; first compound 0.253 µM", "result": 0.236}, {"measurement": "relative viability", "setting": "[19]; first compound 0.8 µM", "result": 0.24}, {"measurement": "relative viability", "setting": "[19]; first compound 2.53 µM", "result": 0.213}, {"measurement": "relative viability", "setting": "[19]; first compound 8 µM", "result": 0.208}, {"measurement": "relative viability", "setting": "[20]; first compound 0.08 µM", "result": 0.262}, {"measurement": "relative viability", "setting": "[20]; first compound 0.253 µM", "result": 0.458}, {"measurement": "relative viability", "setting": "[20]; first compound 0.8 µM", "result": 0.448}, {"measurement": "relative viability", "setting": "[20]; first compound 2.53 µM", "result": 0.376}, {"measurement": "relative viability", "setting": "[20]; first compound 8 µM", "result": 0.346}, {"measurement": "relative viability", "setting": "[21]; first compound 0.08 µM", "result": 0.397}, {"measurement": "relative viability", "setting": "[21]; first compound 0.253 µM", "result": 0.359}, {"measurement": "relative viability", "setting": "[21]; first compound 0.8 µM", "result": 0.383}, {"measurement": "relative viability", "setting": "[21]; first compound 2.53 µM", "result": 0.434}, {"measurement": "relative viability", "setting": "[21]; first compound 8 µM", "result": 0.461}, {"measurement": "relative viability", "setting": "[22]; first compound 0.08 µM", "result": 0.531}, {"measurement": "relative viability", "setting": "[22]; first compound 0.253 µM", "result": 0.624}, {"measurement": "relative viability", "setting": "[22]; first compound 0.8 µM", "result": 0.553}, {"measurement": "relative viability", "setting": "[22]; first compound 2.53 µM", "result": 0.538}, {"measurement": "relative viability", "setting": "[22]; first compound 8 µM", "result": 0.52}]}
